Measured values taken from paper PMC6803969, “Pharmacokinetic Profiling and Simultaneous Determination of Thiopurine Immunosuppressants and Folic Acid by Chromatographic Methods” (Molecules, 2019).

Experiments:
[1] = RP-HPLC hydrophobicity assay (Symmetry C18 column, methanol/phosphate-buffered saline); assay type: physicochemical; settings: extrapolated to pure phosphate-buffered saline, 25 °C
Description: The obtained retention times, tR, were used to calculate log k values according to Equation (3): (3) logk=logtR−t0/t0, with t0 being the retention time of an unretained solute, sodium nitrate. Furthermore, chromatographic parameter of hydrophobicity, log kw C18, was obtained by extrapolation to pure buffer using the linear Equation (4):(4) logk = logkw − SΦ, where S is the slope of the regression line and φ is the concentration (expressed as volume fraction) of methanol.
Hydrophobicity of the compounds was also studied on a reversed-phase Symmetry C18 column (150 × 4.6 mm, 3.5 µm particle size) obtained by Waters (Milford, MA, USA). Methanol-phosphate-buffered saline mixtures were used as mobile phases. The methanol volume fraction was varied from 10% to 50% in 5% steps. Each mobile phase was shaken vigorously, filtrated through cellulose nitrate filter (0.45 μm, Sartorius, Goettingen, Germany) and degassed by sonication (5 min) before use.

[2] = Phospholipid binding assay (IAM-HPLC, IAM.PC.DD2 column); assay type: physicochemical; settings: for log kw IAM, chromatographic parameter of lipophilicity obtained by IAM-HPLC: phosphate-buffered saline pH 7.4 without organic modifier, 25 °C
Experimental: The binding of compounds to the immobilized artificial membrane (IAM) was measured using commercially available immobilized phosphatidylcholine columns (IAM.PC.DD2, 100 x 4.6 mm, […]) obtained by Regis Technologies (Morton Grove, IL, USA). The mobile phase consisted of phosphate-buffered saline that was filtrated through cellulose nitrate filter and degassed (5 min) by sonication before use.

[3] = molecular target: human serum albumin (HSA) (Homo sapiens, UniProt P02768); experiment: Protein binding assay, HSA-HPLC (Chiralpak-HSA column); assay type: in vitro ADME; settings: phosphate buffer pH 7.0/iso-propanol gradient, 25 °C
human serum albumin (HSA), sequence (P02768 25-609): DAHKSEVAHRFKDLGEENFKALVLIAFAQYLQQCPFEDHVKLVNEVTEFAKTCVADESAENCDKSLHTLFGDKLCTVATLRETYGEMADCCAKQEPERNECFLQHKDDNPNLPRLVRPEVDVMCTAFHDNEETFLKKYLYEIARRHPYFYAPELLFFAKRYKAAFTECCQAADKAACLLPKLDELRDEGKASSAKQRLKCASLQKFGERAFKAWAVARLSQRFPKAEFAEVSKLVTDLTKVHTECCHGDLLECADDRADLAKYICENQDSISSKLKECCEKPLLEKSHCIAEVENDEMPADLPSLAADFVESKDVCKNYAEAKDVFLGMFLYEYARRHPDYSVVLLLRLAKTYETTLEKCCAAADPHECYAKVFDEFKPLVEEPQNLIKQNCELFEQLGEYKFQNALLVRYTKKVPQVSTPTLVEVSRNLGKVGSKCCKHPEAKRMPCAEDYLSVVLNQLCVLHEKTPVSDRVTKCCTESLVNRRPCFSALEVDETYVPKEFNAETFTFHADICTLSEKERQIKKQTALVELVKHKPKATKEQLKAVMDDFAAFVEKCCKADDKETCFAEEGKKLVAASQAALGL
Experimental: (§1) In this study, the gradient retention times are standardized using a calibration set of compounds with known percentage of plasma protein binding data (PPBlit).
(§2) Validation of the methods was performed by evaluation of retention of warfarin enantiomers. As retention time on HSA and AGP columns is dependent on the injected amount of compound, the smallest possible amount of sample was injected so that the compound would not saturate the specific binding site.
(§3) The interactions of analytes with plasma proteins human serum albumin (HSA) and α1-acid glycoprotein (AGP) have been measured using commercially available chemically bonded HSA (Chiralpak-HSA, 50 × 4.6 mm, 5 μm particle size) and AGP (Chiralpak-AGP, 50 × 4.6 mm, 5 μm particle size) columns obtained by ChromTech (Cedex, France). The mobile phase consisted of 20 mM potassium phosphate buffer with the pH adjusted to 7.0 (A) and iso-propanol (B). The gradient program was as follows: 0–3 min, linear gradient 0–30% B, 3–10 min, isocratic 30% B. The total run time was 15 min to allow re-equilibration of the protein phase with the buffer. Injection volume was set at 10 µL, and the measurements were carried out at 25.0 ± 0.1 °C and at flow rate 1.5 mL/min. The absorbance of the analytes during a chromatographic run was collected at the following wavelengths: 250, 280, 300, 320 and 340 nm.

[4] = higher levels of NaOH than 0.02 M (0.05 M and 0.1 M)
[5] = RP-TLC hydrophobicity assay (RP-18 plates, methanol/phosphate-buffered saline); assay type: physicochemical; settings: extrapolated to pure phosphate-buffered saline
Experimental: In reversed-phase chromatography, retention of analytes is governed by hydrophobicity, and this parameter was evaluated using both TLC and HPLC techniques. Due to high affinity of investigated compounds for octadecylsilane chemically bonded to porous silica applied on chromatographic plates, several analyses with mixtures of phosphate-buffered saline with various concentrations of methanol as mobile phase were performed. […] RM values were obtained according to Equation (1):(1) RM=log(1/RF−1), where RF represents the retention factor. Furthermore, chromatographic parameter of hydrophobicity, RMw, was obtained by extrapolation to pure buffer using the linear Equation (2):(2) RM = RMw − SΦ, where S is the slope of the regression line and φ is the concentration (expressed as volume fraction) of methanol.
TLC experiments were performed on commercially available 10 × 10 cm RP-18 TLC plates (Merck, Darmstadt, Germany). Methanol-phosphate-buffered saline mixtures were used as mobile phases. The methanol volume fraction was varied from 20% to 80% in 5% steps. A sufficient amount of mobile phase was placed in a Camag flat-bottom chamber for 10 × 10 cm plates with a stainless-steel lid to have a level of 5 mm. After saturation of chambers with solvent vapor for 30 min, the plates were developed to a distance of 9 cm at room temperature, dried in open air for 5 min and visualized under λ = 254 nm UV light.

[6] = system: α1-acid glycoprotein (AGP); experiment: Protein binding assay, AGP-HPLC (Chiralpak-AGP column); settings: phosphate buffer pH 7.0/iso-propanol gradient, 25 °C
Experimental: as §1, §2, §3

[7] = Extraction solvent evaluation / solubility; assay type: physicochemical
Experimental: Protocols utilizing aqueous or organic solvent extraction solutions (acidic, alkaline or neutral pH) combined with at ambient and elevated temperatures shaking and sonication procedures have all been reported. Therefore, one-variable-at-a-time method was applied to find a ubiquitous method suitable for all investigated analytes. […] Folic acid in solution is known to decompose when exposed to ultraviolet light and/or increased temperature; thus, all experiments were performed at ambient temperature using amber laboratory glassware.

log kw C18, chromatographic parameter of hydrophobicity obtained by RP-HPLC [1] | log kw IAM, chromatographic parameter of lipophilicity obtained by IAM-HPLC [2] | PPBHSA, percentage of analyte bound to human serum albumin (HSA) obtained by HSA-HPLC [3] [%] | stability in NaOH extraction solution [4] | RMw, chromatographic parameter of hydrophobicity obtained by RP-TLC [5] | PPBAGP, percentage of analyte bound to α1-acid glycoprotein (AGP) obtained by AGP-HPLC [6] [%] | difference between log kw C18 and log kw IAM values [2] | solubility ([7]; in basic aqueous solutions) | extraction efficiency ([7]; in methanol) [%] | solubility ([7]; in organic solvents as well as in water) | extraction efficiency ([7]; in water) [%] | SMILES
1.34 | 0.68 | 49.22 | degradation | 1.41 | 75.96 |  |  |  |  |  | Cn1cnc([N+](=O)[O-])c1Sc1ncnc2nc[nH]c12 [Azathioprine, azathioprine]
0.99 | −0.26 | 69.40 |  | 0.57 | 3.45 | 1.25 | soluble in basic aqueous solutions | 4.6 | slightly soluble | 22.4 | Nc1nc2ncc(CNc3ccc(C(=O)N[C@@H](CCC(=O)O)C(=O)O)cc3)nc2c(=O)[nH]1 [Folic acid, folic acid]
0.45 | −0.19 |  |  | 0.23 | 22.15 |  |  |  |  |  | Sc1ncnc2nc[nH]c12 [6-mercaptopurine]
0.32 | 0.03 | 24.11 |  | 0.21 | 45.96 |  |  |  |  |  | Nc1nc2nc[nH]c2c(=S)[nH]1 [6-thioguanine]
